Reference: patent publication US20260324636A1, “COMPOSITION FOR PROVIDING PLANT WITH STRESS RESISTANCE” (KIRIN HOLDINGS KABUSHIKI KAISHA, priority 2022, published 2026)

How the values were obtained:
Arabidopsis thaliana = experiment: High-temperature stress resistance in liquid culture (leaf chlorosis, chlorophyll content), Example 1; assay type: in vivo, Arabidopsis thaliana (Col-0); conditions: for chlorosis of plants caused by the high-temperature treatment: 2 h before 44° C. for 60 minutes, then 22° C. 3 days; for chlorophyll content (fresh weight basis): 44° C. 60 minutes, vs group not subjected to the treatment
Text: A wild-type Arabidopsis thaliana strain (accession: Col-0) was used as an experimental material. Seeds were purchased from Inplanta Innovations Inc. (https://www.inplanta.jp/).
A liquid medium containing a ½ Murashige and Skoog Plant Salt Mixture (Nacalai) and 1 (w/v) % sucrose (FUJIFILM Wako) was used as a growth medium.
Arabidopsis thaliana seeds were sterilized with the use of a Kitchen Haiter® liquid (bleach for kitchen available from Kao Corporation) diluted to one-half concentration with distilled water for 3 minutes, washed 3 times with sterile distilled water, and then incubated at 4° C. overnight. The growth medium was dispensed at 1 ml/well on a 24-well microplate (IWAKI), 3 grains of the seeds were inoculated in each well, and the plate was transferred to the incubator (TOMY) to initiate growing. The incubator was maintained at a temperature of 22° C. for a daily cycle of 16 hours light and 8 hours darkness.
Before high-temperature treatment, a stock solution of N-acetylglutamic acid (Tokyo Chemical Industry Co., Ltd.) was added to Arabidopsis thaliana 7 days after seeding to the final concentration of 0, 0.01, 0.05, and 0.1 mM in the media, followed by incubation for 2 hours. Sterile distilled water was used as a solvent for the stock solution of N-acetylglutamic acid.
High-temperature treatment was performed with the use of an incubator. The plate was transferred to an incubator maintained at 44° C., incubated for 60 minutes to perform high-temperature treatment, and cultured in an incubator maintained at 22° C. for 3 days.
Plants are known to lose the green pigment chlorophyll from tissue such as leaves upon high-temperature stress exposure and become chlorotic as a consequence. Accordingly, the chlorophyll content was quantified after the high-temperature treatment to evaluate activity of N-acetylglutamic acid to enhance high-temperature stress resistance. The chlorophyll content was quantified in accordance with the method of Yamaguchi et al. (Nature Commun., Jun. 9, 2021, 12 [1]: 3480). To the collected plants, N,N-dimethylformamide (FUJIFILM Wako) was added at 1 ml/well, and incubation was performed at 4° C. in the dark overnight to extract the chlorophyll. Thereafter, the absorbance of the chlorophyll extract was measured at 647 nm (A647) and 664 nm (A664), respectively, using a microspectrophotometer (NanoPhotometer, Implen), and the chlorophyll content was calculated in accordance with the formula: 19.43×A647+8.05×A664. […] Thus, the chlorophyll content was calculated on a fresh weight basis to compare the chlorophyll content among samples.

OsHSFA2E = OsHSFA2E gene expression by real-time PCR, Example 6; assay type: in vivo, rice; conditions: Oryza sativa; 0.5 mM in medium, 30° C. for 2 hours, aboveground part; read-out: OsHSFA2E expression level, increase vs control
Text: In order to design primers for the target genes necessary for gene expression analysis by real-time PCR, homologs of Arabidopsis thaliana high-temperature-responsive genes in rice were searched for. The amino acid sequence of Arabidopsis thaliana HSFA2 (AGI code: AT2G26150) was obtained from TAIR (https://www.arabidopsis.org/), and the nucleotide sequence of the homolog was obtained using RAP-DB (https://rapdb.dna.affrc.go.jp/). As a reference gene, the nucleotide sequence of the homolog of Arabidopsis thaliana ACTIN2 (AGI code: AT3G18780) was also obtained. Homolog genes in rice were designated as OsHSFA2E and OsACT1, respectively.
The materials as used in Example 3 were used.
The method as employed in Example 3 was employed.
The rice samples subjected to germination for 3 days were inoculated into a liquid medium consisting of a ½ Murashige and Skoog Plant Salt Mixture. Specifically, a liquid medium was dispensed at 3 ml/well to a 12-well microplate (IWAKI), and 3 samples were transferred to each well. N-acetylglutamic acid was applied to each well to the final concentration of 0.5 mM in the medium, incubation was performed at 30° C. for 2 hours, and RNA was extracted from the aboveground part using the RNeasy Plant Mini Kit. […]
(§1) Thereafter, the relative expression level of the target gene upon N-acetylglutamic acid treatment was calculated by the ΔΔCt method.

H1HSFA2 = H1HSFA2 gene expression by real-time PCR, Example 7; assay type: in vivo, hop; conditions: 1 mM in medium, 20° C. for 2 hours, leaves; read-out: H1HSFA2 expression level, increase vs control
Text: In order to design primers for the target genes necessary for gene expression analysis by real-time PCR, homologs of Arabidopsis thaliana high-temperature-responsive genes in hop were searched for. The amino acid sequences of Arabidopsis thaliana HSFA2 (AGI code: AT2G26150) and HSP17.6C (AGI code: AT1G53540) were obtained from TAIR (https://www.arabidopsis.org/), and the nucleotide sequences of the gene homologs were obtained using Hopbase (https://hopbase.cgrb.oregonstate.edu/). […] As the reference gene, the nucleotide sequence of the homolog of Arabidopsis thaliana EF1α (AGI code: AT1G18070) was obtained. The hop homolog genes were designated as H1HSFA2, H1HSP17.6C, and HIEF1α, respectively.
The materials as used in Example 4 were used.
The methods as employed in Example 4 were employed.
The leaves in the first and the second nodes from the apical buds of the tissue-cultured seedlings were sampled 1.5 months after the initiation of subculture and inoculated into a liquid medium consisting of a ½ Murashige and Skoog Plant Salt Mixture and 2 (w/v) % glucose. Specifically, a liquid medium was dispensed at 5 ml/well to a 6-well microplate (IWAKI), and 5 hop leaves were mounted thereon. […]
as §1

CC(=O)N[C@@H](CCC(=O)O)C(=O)O [N-acetylglutamic acid]
chlorosis of plants caused by the high-temperature treatment (Arabidopsis thaliana; 0.05 mM in medium): suppressed
chlorophyll content (fresh weight basis) (Arabidopsis thaliana; 0.05 mM): significantly higher
chlorosis of plants caused by the high-temperature treatment (Arabidopsis thaliana; 0.1 mM in medium): suppressed
chlorophyll content (fresh weight basis) (Arabidopsis thaliana; 0.1 mM): significantly higher
fold induction at 500 µM (OsHSFA2E): 1.4
fold induction at 1000 µM (H1HSFA2): 1.7
